Test results taken from patent US7973061B2, “Anaplastic lymphoma kinase modulators and methods of use” (Exelixis, Inc., priority 2004, dated 2011).

Molecular target: T1, ALK (baculovirus expressed human ALK kinase domain F1098-K1410) (Homo sapiens, UniProt Q9UM73)
T1 construct: human ALK kinase domain F1098-K1410; made in house
Assay: biochemical
Conditions: 1 μM ATP, 4 μM poly-AEKY, 12 nM ALK, 2 hours at ambient temperature; read-out: ALK IC50
Protocol: Kinase activity and compound inhibition are investigated using one or more of the three assay formats described below. The ATP concentrations for each assay are selected to be close to the Michaelis-Menten constant (KM) for each individual kinase. Dose-response experiments are performed at 10 different inhibitor concentrations in a 384-well plate format. […] Y=Min+(Max−Min)/(1+(X/IC50)^H) Equation (2) Luciferase-Coupled Chemiluminescent Kinase Assay
ALK biochemical activity was assessed using a Luciferase-Coupled Chemiluminescent Kinase assay (LCCA) format in which kinase activity was measured as the percent ATP remaining following the kinase reaction. ATP remaining after the kinase reaction was detected by luciferase-luciferin-coupled chemiluminescence. […] The mixture was incubated at ambient temperature for 2 hours after which 20 μL luciferase-luciferin mix was added and the chemiluminescent signal read using a Wallac Victor^2 reader. […] Consumption of ATP by ALK can be quantified and utilized as a measure of inhibition of ALK activity by compounds described herein. By employing serial dilutions of compounds to be tested, the ability of test compounds to inhibit ALK activity can be determined.

T1 sequence (Q9UM73 1098-1410): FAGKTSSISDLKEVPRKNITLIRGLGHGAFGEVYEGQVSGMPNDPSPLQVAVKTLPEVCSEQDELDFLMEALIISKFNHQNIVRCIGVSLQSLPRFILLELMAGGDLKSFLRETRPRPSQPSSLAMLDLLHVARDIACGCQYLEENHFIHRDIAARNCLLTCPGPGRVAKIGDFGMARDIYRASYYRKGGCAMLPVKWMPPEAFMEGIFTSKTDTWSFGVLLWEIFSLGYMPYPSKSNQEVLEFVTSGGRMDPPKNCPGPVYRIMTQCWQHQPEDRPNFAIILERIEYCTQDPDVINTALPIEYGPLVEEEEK

Row | SMILES | IC50
1 | CC(C)(C)OC(=O)NCCCCCNC(=O)c1csc(CNC(=O)COc2ccc(OC(F)(F)F)cc2)n1 [Entry 123, 1,1-dimethylethyl [5-({[2-({[({4-[(trifluoromethyl)oxy]phenyl}oxy)acetyl]amino}methyl)-1,3-thiazol-4-yl]carbonyl}amino)pentyl]carbamate] | 50 to 500 nM
2 | CC(C)c1ccc(OCC(=O)NCc2nc(C(=O)NCCc3ccccc3F)cs2)cc1 [Entry 55, N-[2-(2-fluorophenyl)ethyl]-2-{[({[4-(1-methylethyl)phenyl]oxy}acetyl)amino]methyl}-1,3-thiazole-4-carboxamide] | 50 to 500 nM
3 | O=C(COc1ccc(OC(F)(F)F)cc1)NCc1nc(C(=O)NCc2cccc(I)c2)cs1 [Entry 157, N-[(3-iodophenyl)methyl]-2-({[({4-[(trifluoromethyl)oxy]phenyl}oxy)acetyl]amino}methyl)-1,3-thiazole-4-carboxamide] | 50 to 500 nM
4 | O=C(COc1ccc(Br)cc1)NCc1nc(C(=O)NCCc2cccc(Cl)c2)cs1 [Entry 109, 2-[({[(4-bromophenyl)oxy]acetyl}amino)methyl]-N-[2-(3-chlorophenyl)ethyl]-1,3-thiazole-4-carboxamide] | 50 to 500 nM
5 | O=C(COc1ccc(OC(F)(F)F)cc1)NCc1nc(C(=O)NCc2cc(F)ccc2F)cs1 [Entry 61, N-[(2,5-difluorophenyl)methyl]-2-({[({4-[(trifluoromethyl)oxy]phenyl}oxy)acetyl]amino}methyl)-1,3-thiazole-4-carboxamide] | 50 to 500 nM
6 | CSc1ccccc1CNC(=O)c1csc(CNC(=O)COc2ccc(OC(F)(F)F)cc2)n1 [Entry 41, N-{[2-(methylthio)phenyl]methyl}-2-({[({4-[(trifluoromethyl)oxy]phenyl}oxy)acetyl]amino}methyl)-1,3-thiazole-4-carboxamide] | 50 to 500 nM
7 | CC(NC(=O)c1csc(CNC(=O)COc2ccc(OC(F)(F)F)cc2)n1)c1ccccc1 (stereo not drawn) [Entry 108, N-(1-phenylethyl)-2-({[({4-[(trifluoromethyl)oxy]phenyl}oxy)acetyl]amino}methyl)-1,3-thiazole-4-carboxamide] | 50 to 500 nM
8 | COc1ccc(CCNC(=O)c2csc(CNC(=O)COc3ccc(OC(F)(F)F)cc3)n2)cc1 [Entry 9, N-{2-[4-(methyloxy)phenyl]ethyl}-2-({[({4-[(trifluoromethyl)oxy]phenyl}oxy)acetyl]amino}methyl)-1,3-thiazole-4-carboxamide] | < 50 nM
9 | O=C(COc1ccc(OC(F)(F)F)cc1)NCc1nc(C(=O)N2CCc3c([nH]c4ccccc34)C2)cs1 [Entry 96, N-{[4-(1,3,4,9-tetrahydro-2H-beta-carbolin-2-ylcarbonyl)-1,3-thiazol-2-yl]methyl}-2-({4-[(trifluoromethyl)oxy]phenyl}oxy)acetamide] | 50 to 500 nM
10 | O=C(COc1ccc(OC(F)(F)F)cc1)NCc1nc(C(=O)NCC2c3ccccc3CCc3ccccc32)co1 [Entry 38, N-(10,11-dihydro-5H-dibenzo[a,d]cyclohepten-5-ylmethyl)-2-({[({4-[(trifluoromethyl)oxy]phenyl}oxy)acetyl]amino}methyl)-1,3-oxazole-4-carboxamide] | 50 to 500 nM
11 | COc1ccc(OC)c(CNC(=O)c2csc(CNC(=O)COc3ccc(OC(F)(F)F)cc3)n2)c1 [Entry 112, N-{[2,5-bis(methyloxy)phenyl]methyl}-2-({[({4-[(trifluoromethyl)oxy]phenyl}oxy)acetyl]amino}methyl)-1,3-thiazole-4-carboxamide] | 50 to 500 nM
12 | NS(=O)(=O)c1ccc(CCNC(=O)c2csc(CNC(=O)COc3ccc(OC(F)(F)F)cc3)n2)cc1 [Entry 13, N-{2-[4-(aminosulfonyl)phenyl]ethyl}-2-({[({4-[(trifluoromethyl)oxy]phenyl}oxy)acetyl]amino}methyl)-1,3-thiazole-4-carboxamide] | < 50 nM
13 | O=C(COc1ccc(OC(F)(F)F)cc1)NCc1nc(C(=O)NCc2ccccc2OC(F)F)cs1 [Entry 34, N-({2-[(difluoromethyl)oxy]phenyl}methyl)-2-({[({4-[(trifluoromethyl)oxy]phenyl}oxy)acetyl]amino}methyl)-1,3-thiazole-4-carboxamide] | 50 to 500 nM

More lines, now with the values ahead:

Row | IC50 | SMILES
14 | 50 to 500 nM | CCCCOc1ccc(NC(=O)NCc2nc(C(=O)NCc3ccccc3OC)cs2)cc1 [Entry 214, 2-{[({[4-(butyloxy)phenyl]amino}carbonyl)amino]methyl}-N-{[2-(methyloxy)phenyl]methyl}-1,3-thiazole-4-carboxamide]
15 | 500 to 2000 nM | CC(=O)NCCNC(=O)c1csc(CNC(=O)COc2ccc(OC(F)(F)F)cc2)n1 [Entry 281, N-[2-(acetylamino)ethyl]-2-({[({4-[(trifluoromethyl)oxy]phenyl}oxy)acetyl]amino}methyl)-1,3-thiazole-4-carboxamide]
16 | 500 to 2000 nM | CCN(CC)C(=O)C1CCCN(C(=O)c2csc(CNC(=O)COc3ccc(OC(F)(F)F)cc3)n2)C1 (stereo not drawn) [Entry 270, N,N-diethyl-1-{[2-({[({4-[(trifluoromethyl)oxy]phenyl}oxy)acetyl]amino}methyl)-1,3-thiazol-4-yl]carbonyl}piperidine-3-carboxamide]
17 | 500 to 2000 nM | CCOc1cccc(CCNC(=O)c2coc(CNC(=O)COc3ccc(OC(F)(F)F)cc3)n2)c1 [Entry 230, N-{2-[3-(ethyloxy)phenyl]ethyl}-2-({[({4-[(trifluoromethyl)oxy]phenyl}oxy)acetyl]amino}methyl)-1,3-oxazole-4-carboxamide]
18 | 50 to 500 nM | O=C(COc1ccc(OC(F)(F)F)cc1)NCc1nc(C(=O)NCCc2cccs2)co1 [Entry 159, N-[2-(2-thienyl)ethyl]-2-({[({4-[(trifluoromethyl)oxy]phenyl}oxy)acetyl]amino}methyl)-1,3-oxazole-4-carboxamide]
19 | > 2000 nM | COc1ccccc1CNC(=O)c1csc(CN)n1 [Entry 304, 2-(aminomethyl)-N-{[2-(methyloxy)phenyl]methyl}-1,3-thiazole-4-carboxamide]
20 | 50 to 500 nM | O=C(C/C=C/c1ccccc1)NCc1nc(C(=O)NCCc2cccc(Cl)c2)cs1 [Entry 208, N-[2-(3-chlorophenyl)ethyl]-2-({[(3E)-4-phenylbut-3-enoyl]amino}methyl)-1,3-thiazole-4-carboxamide]
21 | 500 to 2000 nM | O=C(NCc1nc(C(=O)NCCc2cccc(Cl)c2)cs1)OCc1ccc(OC(F)(F)F)cc1 [Entry 298, {4-[(trifluoromethyl)oxy]phenyl}methyl {[4-({[2-(3-chlorophenyl)ethyl]amino}carbonyl)-1,3-thiazol-2-yl]methyl}carbamate]
22 | 500 to 2000 nM | O=C(COc1ccc(OC(F)(F)F)cc1)NCc1nc(C(=O)NCc2ccc(F)cc2F)cs1 [Entry 258, N-[(2,4-difluorophenyl)methyl]-2-({[({4-[(trifluoromethyl)oxy]phenyl}oxy)acetyl]amino}methyl)-1,3-thiazole-4-carboxamide]
23 | 50 to 500 nM | COc1ccccc1CNC(=O)c1coc(CNC(=O)COc2ccc(OC(F)(F)F)cc2)n1 [Entry 203, N-{[2-(methyloxy)phenyl]methyl}-2-({[({4-[(trifluoromethyl)oxy]phenyl}oxy)acetyl]amino}methyl)-1,3-oxazole-4-carboxamide]
24 | 500 to 2000 nM | O=C(COc1ccc(OC(F)(F)F)cc1)NCc1nc(C(=O)NCc2ccccc2Cl)co1 [Entry 261, N-[(2-chlorophenyl)methyl]-2-({[({4-[(trifluoromethyl)oxy]phenyl}oxy)acetyl]amino}methyl)-1,3-oxazole-4-carboxamide]
